# Test results from patent publication US7115797B2, “Mice lacking inward-rectifying potassium channel Kir6.1” (JCR Pharmaceuticals Co., Ltd., priority 2002, dated 2006).
# Legend:
# [1] = test system: Langendorff-perfused hearts; test: Induction of coronary spasm by methylergometrine in vitro (ECG of Langendorff-perfused hearts); parameters: species or system mouse; details: 20 mg
# Protocol: (§1) ECG recordings of conscious mice under unrestricted conditions were obtained using an implantable radio frequency transmitter (TA10ETA-F20) (DATA SCIENCES, St. Paul, Minn.), with subcutaneous leads placed in the conventional lead II position. ECGs of anesthetized mice and isolated hearts (Langendorff-perfused heart) were recorded with leads placed on the body surface (lead II) or epicardium.
# (§2) To link dysregulation of vascular tonus and sudden death in Kir6.1^−/− mice, an examination was tried to induce vasospasm using methylergometrine, an ergot alkaloid that stimulates serotonergic receptors and directly triggers the vasoconstriction of vascular smooth muscles (26).
# anesthetized mice [2] = test: Induction of coronary spasm by methylergometrine in vivo (ECG of anesthetized mice)
# Protocol: as §1, §2
# anesthetized mice [3] = test: Measurement of aortic blood pressure (mean arterial pressure) in anesthetized mice; assay type: in vivo, mouse; details: Kir6.1+/+ mice; intravenous 0.3 mg/kg; within 5 minutes; urethane anesthesia
# Protocol: K^+ channel openers are known to lower arterial blood pressure by relaxing vascular smooth muscles by opening vascular KATP channels. The present inventors examined the vasodilation response to the K^+ channel opener pinacidil in Kir6.1^+/+ and Kir6.1^−/− mice, in vivo at first.
# Hemodynamic measurements were carried out according to the method described by, Suzuki, et al. (12). Changes of mean arterial pressure (MAP) after intravenous injection of 0.3 mg/kg pinacidil are indicated on the ordinate. The points show mean±SE of 6 animals for both groups.
# aortic rings = test: Aortic contraction in isolated aortic preparation (tension of thoracic aortic rings precontracted by norepinephrine); assay type: cell-based, mouse; details: precontracted by 0.1 μM norepinephrine, cumulative pinacidil
# Protocol: The vasodilation response of thoracic aorta to the K^+ channel opener was further examined in vitro by measuring changes in the tension of aortic rings isolated from Kir6.1^+/+ and Kir6.1^−/− mice (FIG. 12). In the same manner as described by Suzuki et al. (13), mechanical function studies of isolated thoracic aorta were carried out. Briefly, the thoracic aorta without the endothelium was removed and cut into rings (4 mm in length). For isometric tension recording, the rings were mounted in a thermostatic organ bath. The bath was perfused with Krebs-Henseleit solution gassed with 95% O2/5% CO2. The aortic rings were precontracted by 0.1 μM norepinephrine, and pinacidil was added in a cumulative manner.
# [4] = test system: aorta smooth muscle cells; test: Whole-cell membrane currents of aorta smooth muscle cells; assay type: cell-based, mouse; details: for density of pinacidil-induced, glibenclamide-sensitive inward K+ current: held at -40 mV, high K+ (140 mM) solution, mean±SE
# Protocol: Single smooth muscle cells of thoracic aorta were enzymatically isolated and electrophysiological studies were conducted in the same manner as performed in the cardiomyocytes.
# The compositions of the extracellular high K^+ solution and the pipette solution used in this smooth muscle cell experiment were as follows. The external high-K^+ solution: 2.9 mM NaCl, 140 mM KCl, 2.2 mM CaCl2, 1.2 mM MgCl2, 14 mM glucose and 10 mM HEPES-KOH buffer (pH 7.4). The pipette solution: 140 mM KCl, 4 mM MgCl2, 1 mM ATP-K2, 10 mM EGTA and 10 mM HEPES-KOH solution (pH 7.2). The membrane current was measured at room temperature.
# Effect of […] pinacidil was tested on whole-cell membrane currents of aorta smooth muscle cells held at −40 mV in high K^+ (140 mM) solution.
# ventricular cells [5] = test: Action potential recording in isolated ventricular cells (current-clamp); assay type: cell-based, mouse; details: for APD at 90% repolarization level (APD90): mean±SE
# Protocol: (§3) Kir6.1 is expressed most abundantly in the heart (24), and is present in cardiomyocytes (25). Therefore, electrophysiological properties of ventricular myocytes isolated from Kir6.1^+/+ and Kir6.1^−/− mice were compared. The quasi-steady-state membrane currents were recorded using a ramp-pulse protocol.
# (§4) Briefly, single ventricular cells of the heart were enzymatically isolated and whole-cell membrane currents were recorded by the patch-clamp method (13). The pipette solution was composed of 20 mM KCl, 1 mM MgCl2, 1 mM phosphocreatine-K2, 110 mM K1-aspartate, 1 mM K2-ATP, 1.0 mM EGTA, 5 mM HEPES (pCa 8.0, pH 7.4). The external solution used was a HEPES-Tyrode solution containing 143 mM NaCl, 5.4 mM KCl, 1.8 mM CaCl2, 0.5 mM MgCl2, 0.33 mM NaHPO4, […], 5 mM HEPES (pH 7.4). Voltage- and current-clamp experiments in heart cells were performed at 36.0° C.
# ventricular cells [6] = test: Whole-cell membrane currents of isolated ventricular cells (patch-clamp, ramp-pulse protocol); assay type: cell-based, mouse; details: ventricular cells of both Kir6.1+/+ and Kir6.1-/- mice
# Protocol: as §3, §4
# [7] = anesthetized Kir6.1-/- mice, intravenous injection 20 mg
smiles,measurement,setting,value
CC[C@@H](CO)NC(=O)[C@@H]1C=C2c3cccc4[nH]cc(c34)C[C@H]2N(C)C1 [methylergometrine],elevation of the ST segment in isolated hearts (hearts affected),[1]; isolated hearts of Kir6.1+/+ mice,0/5
same,elevation of the ST segment in isolated hearts (hearts affected),[1]; isolated hearts of Kir6.1-/- mice,4/4
same,significant changes in ECG or death (animals affected),"anesthetized mice [2]; Kir6.1+/+ mice, intravenous injection",none of 7
same,cardiac death concomitantly with changes in ECG (animals affected),"anesthetized mice [2]; Kir6.1-/- mice, intravenous injection 20 mg",5 Kir6.1^−/− mice out of 8
same,depression of ST segments on ECG (animals affected),anesthetized mice [2]; [7],1 animal out of 8
same,elevation of ST segments on ECG (animals affected),anesthetized mice [2]; [7],4 animals out of 8
CC(N/C(=N\C#N)Nc1ccncc1)C(C)(C)C (centres unmarked) [pinacidil],decrease in MAP,anesthetized mice [3],about 30 mmHg
same,vasodilating effect,aortic rings; aortic rings from Kir6.1+/+ mice,concentration-dependent vasodilating effect
same,vasodilating effect,aortic rings; aortic rings from Kir6.1-/- mice,din not elicit any KATP channel-mediated vasodilating effect
same,"density of pinacidil-induced, glibenclamide-sensitive inward K+ current",[4]; Kir6.1+/+ smooth muscle cells,9.53±2.32 pA/pF
same,"density of pinacidil-induced, glibenclamide-sensitive inward K+ current",[4]; Kir6.1-/- smooth muscle cells,0.13±0.07 pA/pF
same,APD at 90% repolarization level (APD90),"ventricular cells [5]; Kir6.1+/+ ventricular cells, after 100 μM pinacidil (before: 31.6±2.3 ms)",18.3 ± 2.2 ms
same,APD at 90% repolarization level (APD90),"ventricular cells [5]; Kir6.1-/- ventricular cells, after 100 μM pinacidil (before: 31.1±4.2 ms)",18.3 ± 3.9 ms
same,"outward current (ATP-sensitive K+ current, IK,ATP)","ventricular cells [6]; pinacidil 1, 10 or 100 μM, 36.0° C",concentration-dependent increases of an outward current
COc1ccc(Cl)cc1C(=O)NCCc1ccc(S(=O)(=O)NC(=O)NC2CCCCC2)cc1 [glibenclamide],block of pinacidil-elicited inward K+ currents,[4]; Kir6.1+/+ smooth muscle cells,blocked
same,reversal of pinacidil-induced APD90 shortening,"ventricular cells [5]; addition of 1 μM glibenclamide after 100 μM pinacidil, Kir6.1+/+ and Kir6.1-/- cells",reversed to control levels
same,block of pinacidil-induced outward current,ventricular cells [6]; 1 μM glibenclamide,blocked
